Laboratory results published in US20230203041A1, “ANTAGONISTS OF THE ADENOSINE A2A RECEPTOR” (AdoRx Therapeutics Limited, priority 2020, published 2023).
Structures can show the parent of a compound that is named as a salt.

Legend:
[1] = molecular target: T1, human Adenosine A2b receptor (Homo sapiens, UniProt P29275); assay: Adenosine receptor TR-FRET binding assay (CA200645 displacement), A2b; conditions: 30 nM CA200645, CHO cell membranes, 2 hours at room temperature
T1 construct: expressed in transfected cells; host or cells: CHO cell membranes
T1 sequence (P29275 1-332): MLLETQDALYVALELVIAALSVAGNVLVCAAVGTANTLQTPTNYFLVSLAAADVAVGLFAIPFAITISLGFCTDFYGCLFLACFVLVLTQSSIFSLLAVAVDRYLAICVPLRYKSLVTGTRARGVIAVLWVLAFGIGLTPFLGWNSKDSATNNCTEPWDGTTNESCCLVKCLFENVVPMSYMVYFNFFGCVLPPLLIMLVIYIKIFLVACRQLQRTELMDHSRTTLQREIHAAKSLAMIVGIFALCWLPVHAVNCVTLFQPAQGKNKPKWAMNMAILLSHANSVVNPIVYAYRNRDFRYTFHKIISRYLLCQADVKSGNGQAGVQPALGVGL

[2] = molecular target: T2, human Adenosine A3 receptor (Homo sapiens, UniProt P0DMS8); assay: Adenosine receptor TR-FRET binding assay (CA200645 displacement), A3
T2 sequence (P0DMS8 1-318): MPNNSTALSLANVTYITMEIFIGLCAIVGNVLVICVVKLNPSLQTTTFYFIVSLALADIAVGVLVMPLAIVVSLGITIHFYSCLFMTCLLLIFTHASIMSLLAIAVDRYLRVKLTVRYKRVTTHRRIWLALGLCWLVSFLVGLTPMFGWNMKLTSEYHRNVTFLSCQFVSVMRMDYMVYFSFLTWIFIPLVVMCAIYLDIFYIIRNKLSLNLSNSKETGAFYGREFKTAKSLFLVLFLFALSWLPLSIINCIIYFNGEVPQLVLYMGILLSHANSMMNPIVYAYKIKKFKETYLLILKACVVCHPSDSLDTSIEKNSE

[3] = molecular target: T3, human Adenosine A1 receptor (Homo sapiens, UniProt P30542); assay: Adenosine receptor TR-FRET binding assay (CA200645 displacement), A1
T3 sequence (P30542 1-326): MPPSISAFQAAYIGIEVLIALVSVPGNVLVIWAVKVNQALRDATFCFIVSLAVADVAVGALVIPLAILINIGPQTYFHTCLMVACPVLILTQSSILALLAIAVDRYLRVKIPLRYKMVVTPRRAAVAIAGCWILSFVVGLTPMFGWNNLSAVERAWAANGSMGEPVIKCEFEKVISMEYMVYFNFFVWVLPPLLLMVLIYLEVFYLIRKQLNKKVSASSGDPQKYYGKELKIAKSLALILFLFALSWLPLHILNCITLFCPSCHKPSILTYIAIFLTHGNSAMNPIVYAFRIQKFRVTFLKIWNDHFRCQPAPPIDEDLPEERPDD
Experimental: All FRET binding experiments were conducted at room temperature in white 384-well plates, in assay binding buffer containing 1×LabMed (Cisbio, France), 100 μg/mL saponin, 1% DMSO and 0.02% pluronic acid. Binding of the fluorescently labelled Adenosine receptor antagonist XAC (CA200645, FRET acceptor) to terbium-labelled A1, A2a, A2b and A3 adenosine receptors (FRET donors) was detected by time-resolved FRET due to the close proximity of the donor and acceptor in a binding event. To investigate the ability of unlabelled test compounds to bind to Adenosine A1, A2a, A2b and A3 receptors, dose response curves were constructed that determined the ability of a range of concentrations to inhibit the binding of 30 nM CA200645 to the A2b receptor and 100 nM CA200645 to the A1, A2a, and A3 receptor.
Serial dilution (1:3 dilutions) of test compounds in neat DMSO and transfer of a 400 nL sample of test compound into the assay plate was carried out using the Mosquito (TTP Labtech, UK). The compound samples were incubated for 2 hours at room temperature with a fixed concentration of CA200645 defined for each receptor (see above) and CHO cell membranes containing the human Adenosine A1 (0.5 μg/well), A2a (0.3 μg/well), A2b (1 μg/well) or A3 (1 μg/well) receptor in 40 μL of assay buffer. Total and non-specific binding of CA200645 was determined in the absence and presence of 10 μM XAC, respectively. Following 2 hours incubation, the level of CA200645 binding was detected on a Pherastar FSX (BMG Labtech, Germany) using standard TR-FRET settings. The terbium donor was excited with three laser flashes at a wavelength of 337 nm, and donor and acceptor emission was detected at 620 nm and 665 nm wavelengths, respectively. FRET ratios were obtained by multiplying the acceptor/donor ratio value by 10,000. Specific binding was determined by subtracting the non-specific binding FRET ratio from the total binding FRET ratio. Compound IC50 curves were analysed using GraphPad Prism 7.0 (GraphPad, USA) and Ki affinity values were determined from the obtained IC50 values using the method of Cheng and Prusoff.

[4] = molecular target: T4, human Adenosine A2a receptor (Homo sapiens, UniProt P29274); assay: Adenosine receptor TR-FRET binding assay (CA200645 displacement), A2a; conditions: 100 nM CA200645, CHO cell membranes, 2 hours at room temperature
T4 construct: expressed in transfected cells; host or cells: CHO cell membranes
T4 sequence (P29274 whole entry): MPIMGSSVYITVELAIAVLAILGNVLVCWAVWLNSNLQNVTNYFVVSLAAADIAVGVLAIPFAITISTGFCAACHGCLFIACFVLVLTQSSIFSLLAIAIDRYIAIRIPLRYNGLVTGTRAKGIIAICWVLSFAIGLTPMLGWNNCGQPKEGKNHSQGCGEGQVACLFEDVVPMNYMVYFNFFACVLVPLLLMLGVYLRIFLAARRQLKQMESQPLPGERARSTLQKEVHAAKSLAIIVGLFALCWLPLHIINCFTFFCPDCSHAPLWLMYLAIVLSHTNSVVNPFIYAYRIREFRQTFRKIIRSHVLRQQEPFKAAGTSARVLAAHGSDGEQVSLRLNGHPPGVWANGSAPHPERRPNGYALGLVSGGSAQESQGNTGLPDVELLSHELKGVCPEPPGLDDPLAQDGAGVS

SMILES | Ki [1] [nM] | Ki [2] [nM] | Ki [3] [nM] | Ki [4] [nM]
Cc1cc(-c2c(-c3cccc(C#N)c3)nn3ccc(C(=O)NCC4(N)CC(F)(F)C4)nc23)cc(Cl)n1 [Example 7.10, N-[(1-Amino-3,3-difluoro-cyclobutyl)methyl]-3-(2-chloro-6-methyl-4-pyridyl)-2-(3-cyanophenyl)pyrazolo[1,5-a]pyrimidine-5-carboxamide] | 19 | > 1000 | 181 | 4.3
Cc1cc(-c2c(-c3cccc(C#N)c3)nn3ccc(C(=O)NCC4CNCCO4)nc23)cc(Cl)n1 (centres unmarked) [Example 7.11, 3-(2-Chloro-6-methyl-4-pyridyl)-2-(3-cyanophenyl)-N-(morpholin-2-ylmethyl)pyrazolo[1,5-a]pyrimidine-5-carboxamide] | 3 | > 1000 | 137 | 4.9
Cc1cc(-c2c(-c3cccc(C#N)c3)nn3ccc(C(=O)N4CCNCC4)nc23)cc(Cl)n1 [Example 7.12, 3-[3-(2-Chloro-6-methyl-4-pyridyl)-5-(piperazine-1-carbonyl)pyrazolo[1,5-a]pyrimidin-2-yl]benzonitrile hydrochloride] | 20 | > 1000 | 459 | 44.3
Cc1cc(-c2c(-c3cccc(C#N)c3)nn3ccc(C(=O)N[C@@H]4CCNC4)nc23)cc(Cl)n1 [Example 7.13, 3-(2-Chloro-6-methyl-4-pyridyl)-2-(3-cyanophenyl)-N-[(3R)-pyrrolidin-3-yl]pyrazolo[1,5-a]pyrimidine-5-carboxamide hydrochloride] | 28 | > 1000 | 160 | 6.3
Cc1cc(-c2c(-c3cccc(C#N)c3)nn3ccc(C(=O)NC4CCNCC4)nc23)cc(Cl)n1 [Example 7.15, 3-(2-Chloro-6-methyl-4-pyridyl)-2-(3-cyanophenyl)-N-(4-piperidyl)pyrazolo[1,5-a]pyrimidine-5-carboxamide] | 25 | > 1000 | 703 | 22.1
Cc1cc(-c2c(-c3cccc(C#N)c3)nn3ccc(C(C)(C)O)nc23)cc(Cl)n1 [Example 8, 3-[3-(2-Chloro-6-methyl-4-pyridyl)-5-(1-hydroxy-1-methyl-ethyl)pyrazolo[1,5-a]pyrimidin-2-yl]benzonitrile] | 41 | > 1000 | 291 | 9.9
Cc1cc(-c2c(-c3cccc(C#N)c3)nn3ccc(NS(C)(=O)=O)nc23)cc(Cl)n1 [Example 16, N-[3-(2-Chloro-6-methyl-4-pyridyl)-2-(3-cyanophenyl)pyrazolo[1,5-a]pyrimidin-5-yl]methanesulfonamide] | 1 | 1180 | 303 | 13.7
Cc1cc(-c2c(-c3cccc(C#N)c3)nn3ccc(N[C@@H](C)C(=O)O)nc23)cc(Cl)n1 [Example 17, (2S)-2-[[3-(2-Chloro-6-methyl-4-pyridyl)-2-(3-cyanophenyl)pyrazolo[1,5-a]pyrimidin-5-yl]amino]propanoic acid] | 101 | > 1000 | 136 | 17.9
Cc1cc(-c2c(-c3cccc(C#N)c3)nn3ccc(O[C@@H]4CCNC4)nc23)cc(Cl)n1 [Example 18, 3-[3-(2-Chloro-6-methyl-4-pyridyl)-5-[(3R)-pyrrolidin-3-yl]oxy-pyrazolo[1,5-a]pyrimidin-2-yl]benzonitrile formate] | 16 | > 1000 | 54 | 9.7
Cc1cc(-c2c(-c3cccc(C#N)c3)nn3ccc(CN4CCOCC4)nc23)cc(Cl)n1 [Example 20, 3-[3-(2-Chloro-6-methyl-4-pyridyl)-5-(morpholinomethyl)pyrazolo[1,5-a]pyrimidin-2-yl]benzonitrile] | 22 | > 1000 | 573 | 11.6
Cc1cc(-c2c(-c3cccc(C#N)c3)nn3ccc(CN4CCNCC4)nc23)cc(C)n1 [Example 20.1, 3-[3-(2,6-Dimethyl-4-pyridyl)-5-(piperazin-1-ylmethyl)pyrazolo[1,5-a]pyrimidin-2-yl]benzonitrile trifluoroacetate] | 626 | > 1000 | 2530 | 116
Cc1cc(-c2c(-c3cccc(C#N)c3)nn3ccc(CN)nc23)cc(Cl)n1 [Example 21, 3-[5-(Aminomethyl)-3-(2-chloro-6-methyl-4-pyridyl)pyrazolo[1,5-a]pyrimidin-2-yl]benzonitrile] | 102 | > 1000 | 2440 | 81.5
Cc1cc(-c2c(-c3cccc(C#N)c3)nn3ccc(CCC(C)(C)O)nc23)cc(Cl)n1 [Example 22, 3-[3-(2-Chloro-6-methyl-4-pyridyl)-5-(3-hydroxy-3-methyl-butyl)pyrazolo[1,5-a]pyrimidin-2-yl]benzonitrile] | 34 | > 1000 | 141 | 1
Cc1cc(-c2c(-c3cccc(C#N)c3)nn3ccc(N)nc23)cnc1N [Example 26, 3-[5-Amino-3-(6-amino-5-methyl-3-pyridyl)pyrazolo[1,5-a]pyrimidin-2-yl]benzonitrile] | 409 | 2430 | 6 | 147
Cc1cc(-c2c(-c3cccc(C#N)c3)nn3ccc(N)nc23)cc(C)[n+]1[O-] [Example 27, 3-[5-Amino-3-(2,6-dimethyl-1-oxido-pyridin-1-ium-4-yl)pyrazolo[1,5-a]pyrimidin-2-yl]benzonitrile] | 2 | > 1000 | 4 | 1.8
Cc1cc(-c2c(-c3cccc(C#N)c3)nn3ccc(N)nc23)cc(C(=O)O)n1 [Example 28, 4-[5-Amino-2-(3-cyanophenyl)pyrazolo[1,5-a]pyrimidin-3-yl]-6-methyl-pyridine-2-carboxylic acid] | 2460 | > 1000 | 1120 | 359

Continued, values first:

Ki [1] [nM] | Ki [2] [nM] | Ki [3] [nM] | Ki [4] [nM] | SMILES
90 | 1980 | 163 | 10.2 | Cc1cc(-c2c(-c3cccc(C#N)c3)nn3ccc(N(C)C)nc23)cc(Cl)n1 [Example 23.4]
29 | 1650 | 9 | 3.3 | Cc1cc(-c2c(-c3cccc(C#N)c3)nn3ccc(O[C@@H]4CCCNC4)nc23)cc(Cl)n1 [Example 24.1, 3-[3-(2-Chloro-6-methyl-4-pyridyl)-5-[[(3R)-3-piperidyl]oxy]pyrazolo[1,5-a]pyrimidin-2-yl]benzonitrile]
16 | 578 | 6 | 10.1 | Cc1cc(-c2c(-c3cccc(C#N)c3)nn3ccc(N)nc23)cc(F)n1 [Example 26.4, 3-[5-Amino-3-(2-fluoro-6-methyl-4-pyridyl)pyrazolo[1,5-a]pyrimidin-2-yl]benzonitrile]
1200 | 749 | 89 | 105 | Cn1cc(-c2c(-c3cccc(C#N)c3)nn3ccc(N)nc23)cn1 [Example 26.5, 3-[5-Amino-3-(1-methylpyrazol-4-yl)pyrazolo[1,5-a]pyrimidin-2-yl]benzonitrile]
39 | > 1000 | 17 | 13.3 | Cc1cc(-c2c(-c3cccc(C#N)c3)nn3ccc(N)nc23)cc(C(N)=O)n1 [Example 27.2, 4-[5-Amino-2-(3-cyanophenyl)pyrazolo[1,5-a]pyrimidin-3-yl]-6-methyl-pyridine-2-carboxamide]
519 | > 1000 | 583 | 54.1 | CC(=O)Nc1cc(-c2c(-c3cccc(C#N)c3)nn3ccc(N)nc23)cc(C)n1 [Example 27.4, N-[4-[5-Amino-2-(3-cyanophenyl)pyrazolo[1,5-a]pyrimidin-3-yl]-6-methyl-2-pyridyl]acetamide]
108 | > 1000 | 46 | 360 | Cc1cc(-c2c(-c3cccc(C#N)c3)nn3ccc(N)nc23)cc2ncnn12 [Example 27.5, 3-[5-Amino-3-(5-methyl-[1,2,4]triazolo[1,5-a]pyridin-7-yl)pyrazolo[1,5-a]pyrimidin-2-yl]benzonitrile]
